This note sets out measurements from patent US20250115872A1, “GENERATION OF BROWN ADIPOCYTES FROM HUMAN PLURIPOTENT STEM CELLS” (The Brigham and Women's Hospital, Inc., priority 2022, published 2025).

This test relates to iPSC-BAs. Put plainly: Seahorse assay, oxygen consumption rate in iPSC-BAs. It counts as cell-based, human. The method, then:
FIGS. 8A-D: FIG. 8A—RT-qPCR analysis for UCP1 on 40 day old replated iPSC-derived adipogenic cultures treated with 10 μM forskolin or vehicle control DMSO treatment for 4 hours. Relative gene expression is shown as relative change to undifferentiated iPSC. Mean±SD, n=5, t-test, p<0.01. FIG. 8B—Measurement of glycerol released in culture medium 40 day old replated iPSC-derived adipogenic cultures treated with 10 μM forskolin or vehicle control DMSO treatment for 4 hours. Glycerol amount normalized using total protein amount. Mean±SD, n=4, t-test, p≤0.01. FIG. 8C—Measurement of fluorescent intensity of thermosensitive ERthermAC dye in iPSC derived precursors on day 20 of differentiation and brown adipocytes after 40 days of replating in response to 10 μM forskolin or vehicle control DMSO. Each data point represents Mean±SD, n=3, t-test, p=0.0009. FIG. 8D—Seahorse analysis to measure oxygen consumption rate in iPSC derived precursors on day 20 of differentiation and brown adipocytes after 40 days of replating in response to 1.5 μM oligomycin, 10 μM forskolin or vehicle control DMSO and 1 μM Rotenone and Antimycin (Rot/AA), respectively. Adipocytes or precursor cells were in XFe96 cell culture plates one week prior to the assay. […]
Agilent Seahorse XFe96 Analyzer was used to measure oxygen consumption in live iPSC-BAs and precursor cells following manufacturer's instructions. […] Basal respiration was measured 3 times in the assay medium. […] Cells were then treated with 10 μM Forskolin (Sigma-Aldrich, F6886) or DMSO (Sigma-Aldrich, D2650) and oxygen consumption rate (OCR) was measured for 70 minutes (12 measurements). […] Cells were automatically segmented using custom code in Fiji and number of DAPI and mCherry positive cells were quantified. […]
The process of thermogenesis is driven by the flow of protons through UCP1 in the mitochondrial inner membrane. To examine whether forskolin-induced thermogenesis in iPSC-BAs is coupled to proton leak in mitochondria, we measured oxygen consumption rate (OCR) with a Seahorse metabolic flux analyzer in 40 day-old replated cultures ([…]). […]

Where [1] appears, read: 1 μM Rotenone and Antimycin (Rot/AA), last step, electron transport chain block.

As to `CC[C@H]1/C=C/C=C/C[C@@H](C)[C@H](O)[C@@](C)(O)C(=O)[C@@H](C)[C@H](O)[C@@H](C)C(=O)[C@@H](C)[C@H](O)[C@@H](C)/C=C/C(=O)O[C@@H]2[C@H](C)[C@H](CC1)O[C@]1(CC[C@H](C)[C@H](C[C@@H](C)O)O1)[C@H]2C` [Oligomycin], the “oxygen consumption rate (OCR)” value (1.5 μM Oligomycin alone, versus basal respiration) is “the OCR in cells decreased”.
As for `C=C(C)[C@H]1Cc2c(ccc3c2O[C@@H]2COc4cc(OC)c(OC)cc4[C@@H]2C3=O)O1` [Rotenone], under setting [1], the “oxygen consumption rate (OCR)” value is “drop of OCR”.
Still for that read-out and setting: with Antimycin the entry was “drop of OCR”.
